From patent US8106197B2, “Aminoheteroaryl compounds as protein kinase inhibitors” (Pfizer Inc., priority 2003, dated 2012) come the findings set out here.

The target in this assay is T1, HGFR (Homo sapiens, UniProt P08581).
T1 construct: purchased Upstate 14-526
Put plainly: HGFR continuous-coupled spectrophotometric assay. Format: biochemical.

Structures are written as SMILES.

T1 sequence (P08581 974-1390 limits assumed): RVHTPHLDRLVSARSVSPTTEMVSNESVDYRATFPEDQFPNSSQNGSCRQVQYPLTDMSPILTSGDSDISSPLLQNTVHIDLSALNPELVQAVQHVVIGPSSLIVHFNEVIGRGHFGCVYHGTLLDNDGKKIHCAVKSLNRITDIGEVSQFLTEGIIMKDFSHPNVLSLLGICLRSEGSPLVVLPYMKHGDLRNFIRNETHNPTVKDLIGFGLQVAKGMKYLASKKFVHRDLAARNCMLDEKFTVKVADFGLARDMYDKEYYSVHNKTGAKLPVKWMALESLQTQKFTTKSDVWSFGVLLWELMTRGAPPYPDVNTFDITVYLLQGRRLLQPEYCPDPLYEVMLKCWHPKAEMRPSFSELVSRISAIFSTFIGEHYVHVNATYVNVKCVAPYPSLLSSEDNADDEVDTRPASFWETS

Turning to `CC(C)(C)c1ccc(-c2noc(COc3cc(-c4ccc(C(=O)N5CCC(N6CCCC6)CC5)cc4)cnc3N)n2)cc1`, the “% inhibition” value is recorded as “% inhibition = 36”.

`Cc1noc(C)c1-c1nc(COc2cc(-c3ccc(C(=O)N4CCC(N5CCCC5)CC4)cc3)cnc2N)no1`: the “% inhibition” value is “% inhibition = 6”.

Consider `COc1ccccc1-c1nc(COc2cc(-c3ccc(C(=O)N4CCC(N5CCCC5)CC4)cc3)cnc2N)no1`, for which the “% inhibition” value is on record as “% inhibition = 8”.

`Nc1ncc(-c2ccc(C(=O)N3CCC(N4CCCC4)CC3)cc2)cc1OCc1csc(-c2ccc(Cl)cc2)n1`: the “% inhibition” value is reported as “% inhibition = 9”.

As to `Cc1nc(COc2cc(-c3ccc(C(=O)N4CCC(N5CCCC5)CC4)cc3)cnc2N)cs1`, the “% inhibition” value is recorded as “% inhibition = 6”.

For the molecule `Nc1ncc(-c2ccc(C(=O)N3CCC(N4CCCC4)CC3)cc2)cc1OCc1noc(-c2cccc(C(F)(F)F)c2)n1`, the “% inhibition” value is listed as “% inhibition = 27”.

With `Cn1c(COc2cc(-c3ccc(C(=O)N4CCC(N5CCCC5)CC4)cc3)cnc2N)nc2ccccc21`, the “% inhibition” value is given as “% inhibition = 10”.

On to `Nc1ncc(-c2ccc(C(=O)N3CCC(N4CCCC4)CC3)cc2)cc1OCc1nc(-c2ccccn2)no1`, for which the “% inhibition” value was “% inhibition = 9”.

Regarding `Nc1ncc(-c2ccc(C(=O)N3CCC(N4CCCC4)CC3)cc2)cc1OCc1c(F)ccc(F)c1Cl`, the “% inhibition” value is listed as “% inhibition = 50”.

With `Cc1ccc(COc2cc(-c3ccc(C(=O)N4CCC(N5CCCC5)CC4)cc3)cnc2N)c(F)c1F`, the “% inhibition” value is on record as “% inhibition = 39”.

In the case of `Cc1ccc(F)c(COc2cc(-c3ccc(C(=O)N4CCC(N5CCCC5)CC4)cc3)cnc2N)c1F`, the “% inhibition” value is reported as “% inhibition = 51”.

With `Cc1cc(COc2cc(-c3ccc(C(=O)N4CCC(N5CCCC5)CC4)cc3)cnc2N)ccc1F`, the “% inhibition” value is listed as “% inhibition = 27”.

For the molecule `Cc1ccc(F)cc1COc1cc(-c2ccc(C(=O)N3CCC(N4CCCC4)CC3)cc2)cnc1N`, the “% inhibition” value is “% inhibition = 29”.

`Nc1ncc(-c2ccc(C(=O)N3CCC(N4CCCC4)CC3)cc2)cc1OCc1cccc(Br)c1`: the “% inhibition” value was “% inhibition = 24”.

With `Nc1ncc(-c2ccc(C(=O)N3CCC(N4CCCC4)CC3)cc2)cc1OCc1nc(N)c2ccccc2n1`, the “% inhibition” value is listed as “% inhibition = 15”.

Turning to `Nc1ncc(-c2ccc(C(=O)N3CCC(N4CCCC4)CC3)cc2)cc1OCc1cccnc1`, the “% inhibition” value is on record as “% inhibition = 17”.

In the case of `Nc1ncc(-c2ccc(C(=O)N3CCC(N4CCCC4)CC3)cc2)cc1OCc1ccccn1`, the “% inhibition” value is “% inhibition = 16”.

Regarding `COc1c(C)cnc(COc2cc(-c3ccc(C(=O)N4CCC(N5CCCC5)CC4)cc3)cnc2N)c1C`, the “% inhibition” value is on record as “% inhibition = 20”.

On to `Cc1onc(-c2ccccc2)c1COc1cc(-c2ccc(C(=O)N3CCC(N4CCCC4)CC3)cc2)cnc1N`, for which the “% inhibition” value was “% inhibition = 19”.

For `Nc1ncc(-c2ccc(C(=O)N3CCC(N4CCCC4)CC3)cc2)cc1OCc1cn2cccnc2n1`, the “% inhibition” value is “% inhibition = 16”.

For the molecule `Cc1cc(C)n2nc(COc3cc(-c4ccc(C(=O)N5CCC(N6CCCC6)CC5)cc4)cnc3N)nc2n1`, the “% inhibition” value is listed as “% inhibition = 18”.

With `Nc1ncc(-c2ccc(C(=O)N3CCC(N4CCCC4)CC3)cc2)cc1OCc1cccc2cccnc12`, the “% inhibition” value is recorded as “% inhibition = 22”.

For `Cn1nc(-c2ccccc2)c(COc2cc(-c3ccc(C(=O)N4CCC(N5CCCC5)CC4)cc3)cnc2N)c1Cl`, the “% inhibition” value was “% inhibition = 63”.

For the molecule `Nc1ncc(-c2ccc(C(=O)N3CCC(N4CCCC4)CC3)cc2)cc1OCc1nc2ccccc2s1`, the “% inhibition” value was “% inhibition = 17”.

As to `Cc1ccc(-c2nnc(COc3cc(-c4ccc(C(=O)N5CCC(N6CCCC6)CC5)cc4)cnc3N)o2)cc1`, the “% inhibition” value is listed as “% inhibition = 18”.

On to `Nc1ncc(-c2ccc(C(=O)N3CCC(N4CCCC4)CC3)cc2)cc1OCc1cc(-c2ccccc2)no1`, for which the “% inhibition” value was “% inhibition = 23”.

Consider `Cc1cc(COc2cc(-c3ccc(C(=O)N4CCC(N5CCCC5)CC4)cc3)cnc2N)no1`, for which the “% inhibition” value is “% inhibition = 16”.

On to `Nc1ncc(-c2ccc(C(=O)N3CCC(N4CCCC4)CC3)cc2)cc1OCc1nnn[nH]1`, for which the “% inhibition” value is reported as “% inhibition = 14”.

Regarding `COC(=O)Nc1cc(COc2cc(-c3ccc(C(=O)N4CCC(N5CCCC5)CC4)cc3)cnc2N)on1`, the “% inhibition” value is “% inhibition = 18”.

Take `Cn1ccnc1COc1cc(-c2ccc(C(=O)N3CCC(N4CCCC4)CC3)cc2)cnc1N`: the “% inhibition” value is listed as “% inhibition = 14”.

For `Cc1nc(COc2cc(-c3ccc(C(=O)N4CCC(N5CCCC5)CC4)cc3)cnc2N)n(C)n1`, the “% inhibition” value is “% inhibition = 14”.

`Nc1ncc(-c2ccc(C(=O)N3CCC(N4CCCC4)CC3)cc2)cc1OCc1nc2cc(C(F)(F)F)ccc2s1`: the “% inhibition” value is “% inhibition = 34”.

As to `Nc1ncc(-c2ccc(C(=O)N3CCC(N4CCCC4)CC3)cc2)cc1OCc1ccc2ccc(Cl)cc2n1`, the “% inhibition” value was “% inhibition = 24”.

On to `Cc1oc(-c2ccccc2)nc1COc1cc(-c2ccc(C(=O)N3CCC(N4CCCC4)CC3)cc2)cnc1N`, for which the “% inhibition” value is “% inhibition = 19”.

Turning to `Nc1ncc(-c2ccc(C(=O)N3CCC(N4CCCC4)CC3)cc2)cc1OCc1nc2ncccn2n1`, the “% inhibition” value is given as “% inhibition = 19”.

On to `Cc1cc(=O)n2nc(COc3cc(-c4ccc(C(=O)N5CCC(N6CCCC6)CC5)cc4)cnc3N)nc2[nH]1`, for which the “% inhibition” value is listed as “% inhibition = 18”.

On to `Nc1ncc(-c2ccc(C(=O)N3CCC(N4CCCC4)CC3)cc2)cc1OCc1nnnn1Cc1ccccc1`, for which the “% inhibition” value is “% inhibition = 19”.

Consider `Cc1cnc2nc(COc3cc(-c4ccc(C(=O)N5CCC(N6CCCC6)CC5)cc4)cnc3N)nn2c1`, for which the “% inhibition” value was “% inhibition = 17”.

`Nc1ncc(-c2ccc(C(=O)N3CCC(N4CCCC4)CC3)cc2)cc1OCc1nc2ccc(Cl)cc2[nH]1`: the “% inhibition” value is recorded as “% inhibition = 16”.

In the case of `Nc1ncc(-c2ccc(C(=O)N3CCC(N4CCCC4)CC3)cc2)cc1OCc1nc2cccnc2[nH]1`, the “% inhibition” value was “% inhibition = 17”.

In the case of `Nc1ncc(-c2ccc(C(=O)N3CCC(N4CCCC4)CC3)cc2)cc1OCc1nc2ncccc2o1`, the “% inhibition” value is “% inhibition = 17”.

On to `COc1cc(OC)nc(COc2cc(-c3ccc(C(=O)N4CCC(N5CCCC5)CC4)cc3)cnc2N)n1`, for which the “% inhibition” value is recorded as “% inhibition = 20”.

Consider `Cc1[nH]cnc1COc1cc(-c2ccc(C(=O)N3CCC(N4CCCC4)CC3)cc2)cnc1N`, for which the “% inhibition” value is recorded as “% inhibition = 12”.

For `CCCCc1nc(COc2cc(-c3ccc(C(=O)N4CCC(N5CCCC5)CC4)cc3)cnc2N)c[nH]1`, the “% inhibition” value was “% inhibition = 16”.

As for `COc1ccnc(COc2cc(-c3ccc(C(=O)N4CCC(N5CCCC5)CC4)cc3)cnc2N)c1OC`, the “% inhibition” value is “% inhibition = 23”.

Turning to `Nc1ncc(-c2ccc(C(=O)N3CCC(N4CCCC4)CC3)cc2)cc1OCc1cn2cc(Cl)ccc2n1`, the “% inhibition” value is reported as “% inhibition = 16”.

As for `Cc1cccnc1COc1cc(-c2ccc(C(=O)N3CCC(N4CCCC4)CC3)cc2)cnc1N`, the “% inhibition” value was “% inhibition = 16”.

For the molecule `Cc1ccn2cc(COc3cc(-c4ccc(C(=O)N5CCC(N6CCCC6)CC5)cc4)cnc3N)nc2c1`, the “% inhibition” value was “% inhibition = 18”.

On to `Cc1oc(-c2ccc(F)cc2)nc1COc1cc(-c2ccc(C(=O)N3CCC(N4CCCC4)CC3)cc2)cnc1N`, for which the “% inhibition” value is reported as “% inhibition = 17”.

`Cc1cccc(COc2cc(-c3ccc(C(=O)N4CCC(N5CCCC5)CC4)cc3)cnc2N)n1`: the “% inhibition” value is “% inhibition = 17”.

For the molecule `Cc1cc(C)nc(COc2cc(-c3ccc(C(=O)N4CCC(N5CCCC5)CC4)cc3)cnc2N)n1`, the “% inhibition” value is on record as “% inhibition = 16”.

On to `COc1ccccc1-c1nc(COc2cc(-c3ccc(C(=O)N4CCC(N5CCCC5)CC4)cc3)cnc2N)c(C)o1`, for which the “% inhibition” value is “% inhibition = 19”.

As to `CCc1ccc(COc2cc(-c3ccc(C(=O)N4CCC(N5CCCC5)CC4)cc3)cnc2N)nc1`, the “% inhibition” value is reported as “% inhibition = 15”.

As to `Cc1oc(-c2cccc(F)c2)nc1COc1cc(-c2ccc(C(=O)N3CCC(N4CCCC4)CC3)cc2)cnc1N`, the “% inhibition” value is “% inhibition = 8”.

With `Cn1nc(C(F)(F)F)c2cc(COc3cc(-c4ccc(C(=O)N5CCC(N6CCCC6)CC5)cc4)cnc3N)sc21`, the “% inhibition” value is “% inhibition = 14”.

For the molecule `Nc1ncc(-c2ccc(C(=O)N3CCC(N4CCCC4)CC3)cc2)cc1OCc1cc(-c2ccc(Cl)cc2)no1`, the “% inhibition” value was “% inhibition = 23”.

On to `Cn1nc(CC2CC2)nc1COc1cc(-c2ccc(C(=O)N3CCC(N4CCCC4)CC3)cc2)cnc1N`, for which the “% inhibition” value is reported as “% inhibition = 7”.

With `N#Cc1nc(COc2cc(-c3ccc(C(=O)N4CCC(N5CCCC5)CC4)cc3)cnc2N)cnc1N`, the “% inhibition” value is given as “% inhibition = 9”.

Regarding `Cn1nc(-c2ccccc2)nc1COc1cc(-c2ccc(C(=O)N3CCC(N4CCCC4)CC3)cc2)cnc1N`, the “% inhibition” value is on record as “% inhibition = 5”.

Regarding `Cn1nc(C2CC2)nc1COc1cc(-c2ccc(C(=O)N3CCC(N4CCCC4)CC3)cc2)cnc1N`, the “% inhibition” value was “% inhibition = 5”.

For the molecule `Cc1ccnc2nc(COc3cc(-c4ccc(C(=O)N5CCC(N6CCCC6)CC5)cc4)cnc3N)cn12`, the “% inhibition” value is reported as “% inhibition = 10”.

For the molecule `Nc1ncc(-c2ccc(C(=O)N3CCC(N4CCCC4)CC3)cc2)cc1OCc1ncccn1`, the “% inhibition” value is “% inhibition = 9”.

As for `CCc1ccn2cc(COc3cc(-c4ccc(C(=O)N5CCC(N6CCCC6)CC5)cc4)cnc3N)nc2c1`, the “% inhibition” value is on record as “% inhibition = 9”.

Regarding `Nc1nc(COc2cc(-c3ccc(C(=O)N4CCC(N5CCCC5)CC4)cc3)cnc2N)nc(Nc2ccccc2)n1`, the “% inhibition” value is given as “% inhibition = 9”.

In the case of `Nc1ncc(-c2ccc(C(=O)N3CCC(N4CCCC4)CC3)cc2)cc1OCc1nccn1Cc1ccccc1`, the “% inhibition” value is “% inhibition = 8”.

Regarding `N#Cc1ccc(COc2cc(-c3ccc(C(=O)N4CCC(N5CCCC5)CC4)cc3)cnc2N)cc1`, the “% inhibition” value is listed as “% inhibition = 8”.

`Nc1ncc(-c2ccc(C(=O)N3CCC(N4CCCC4)CC3)cc2)cc1COc1ccc2ccccc2c1`: the “% inhibition” value is “% inhibition = 27”.

For `N#Cc1cccc(COc2cc(-c3ccc(C(=O)N4CCC(N5CCCC5)CC4)cc3)cnc2N)c1`, the “% inhibition” value is “% inhibition = 12”.

Consider `Nc1ncc(-c2ccc(C(=O)N3CCC(N4CCCC4)CC3)cc2)cc1OCc1ccc(F)cc1F`, for which the “% inhibition” value is listed as “% inhibition = 18”.
